Results on three compounds are retold here after PMC11048566, “The Development of a Regulator of Human Serine Racemase for N-Methyl-D-aspartate Function” (Biomedicines, 2024).

The target in assay [1] is T1, human serine racemase (hSR) (Homo sapiens, UniProt Q9GZT4).
T1 construct: 6xHis (C); made in house; host or cells: E. coli BL21 (pET42b-hSR)
T1 sequence (Q9GZT4 1-340): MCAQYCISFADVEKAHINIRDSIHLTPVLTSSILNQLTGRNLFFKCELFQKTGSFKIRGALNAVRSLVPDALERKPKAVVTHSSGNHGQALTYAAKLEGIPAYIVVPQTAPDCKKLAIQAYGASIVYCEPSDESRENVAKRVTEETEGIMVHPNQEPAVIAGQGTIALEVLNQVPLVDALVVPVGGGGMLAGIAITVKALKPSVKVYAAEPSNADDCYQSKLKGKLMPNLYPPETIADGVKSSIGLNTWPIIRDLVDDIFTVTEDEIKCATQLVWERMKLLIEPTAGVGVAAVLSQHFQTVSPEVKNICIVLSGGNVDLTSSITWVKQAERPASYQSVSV
Put plainly: Two-step enzymatic assay of hSR racemization (hSR, then DAAO/HRP/Amplex Red). In kind it is biochemical. The note with it: within the physiological range of ATP concentration. The method, then: This assay was designed by the formation of D-serine by hSR and the oxidation of D-serine by D-amino acid oxidase (DAAO) and horseradish peroxidase (HRP) with the peroxidase substrate Amplex Red^TM (10-acetyl-3,7-dihydroxyphenoxazine) (Thermo Fisher Scientific, Lagoas Park, Porto Salvo, Portugal). The hSR activity assay reaction was carried out in 100 mM HEPES buffer, pH 8.0, containing 2.4 µg of hSR protein, 50 µM PLP, 1 mM MgCl2, 0.25 mM ATP, 400 mM L-serine, and 2 times serially diluted α12G (8 mM to 0.2 µM). Compound-free wells were used as blank controls in the assay. All reactions were performed in duplicates. The reaction mixtures were incubated at 37 °C for 4 h. The reaction was stopped by heating the reaction mixtures at 95 °C for 10 min and storage at 4 °C. A reaction mixture for the second-step enzymatic assay, DAAO assay, with a final volume of 100 µL was made with a 10 µL sample from hSR assay, 45 µM FAD, 10 units of HRP, 60 ng DAAO, 10 mM lead acetate, 10 mM Amplex Red^TM, and 100 mM Tris HCl (pH = 8.5). Lead acetate was used to conjugate α12G as the latter would inhibit the DAAO function in the fluorometric assay, leading to an […] of the effects of α12G on hSR. The fluorescence was detected by the TECAN Infinite 200 Microplate Reader (GMI, MN, USA). The racemization percentage was calculated as follows: racemization % = (Fsample, 20 min − Fsample, 0 min)/(Fblank, 20 min − Fblank, 0 min) × 100%. […] The two-step enzymatic assay described in Section 2.3 was designed by the formation of D-serine by hSR and the consequent oxidation of D-serine by DAAO. The inhibition of DAAO, which also degrades D-serine, by α12G will lead to overestimating the effects of racemization by hSR. […] Therefore, lead acetate was applied to conjugate α12G for the determination of racemization. […] On the contrary, when the concentration of α12G is higher than 2 mM, the racemization activity of hSR is inhibited.

The target of the next assay is T2, hSR (Homo sapiens, UniProt Q9GZT4).
T2 construct: 6xHis (C); made in house; host or cells: E. coli BL21 (pET42b-hSR)
T2 sequence (Q9GZT4 1-340): T1 sequence (Q9GZT4 1-340)
Details: method as in PMID 29899358. The settings on record: 2 mM ATP, cited from earlier work.

Assay [2] deals with D-amino acid oxidase (DAAO) (Homo sapiens, UniProt P14920). Put plainly: DAAO enzymatic assay. In kind it is biochemical. The procedure:
A reaction mixture for the DAAO assay, with a final volume of 100 µL was made with 1 µL 2 times serially diluted α12G (4 µM to 7.8 nM), 45 µM FAD, 10 units of HRP, 60 ng DAAO, 10 mM Amplex Red^TM, 5 mM D-serine, and 100 mM Tris HCl (pH = 8.5). All reactions were performed in duplicates. The fluorescence was detected by a fluorometric meter (TECAN Infinite 200). The racemization percentage was calculated as follows: activity % = (Fsample, 20 min − Fsample, 0 min)/(Fblank, 20 min − Fblank, 0 min) × 100%.

The subject of assay [3] is SR. The settings on record: two-step enzymatic assay; read-out: IC50 of SR inhibition; cited from earlier work.
Assay [4] deals with SR. The assay is described as follows: D-serine and L-serine levels in cerebral cortex and plasma after IV DMM (LC-MS/MS). In kind it is in vivo, C57BL/6J male mice. The settings on record: 400 mg/kg DMM IV, 30 min after administration, vs vehicle, n = 3. The procedure: For the determination of DAA concentration, C57BL/6J male mice received 50, 100, 200, and 400 mg/kg DMM (TGI, Tokyo, Japan) IV, and the mice were euthanized 30 min later. Cerebral cortex and plasma samples (n = 3 − 9) were collected and stored at −80 °C until the time of analysis. The brain tissues were weighed and homogenized on ice with 5-fold volumes of 1000 ng/mL tolbutamide (internal standard, IS, Sigma-Aldrich, St. Louis, MO, USA)) in methanol (Merck KGaA, Darmstadt, Germany). The plasma was combined with 4-fold volumes of 1250 ng/mL IS in methanol and vortexed for 2 min. The homogenates were centrifuged at 12,000× g […] for 10 min at 4 °C in an Eppendorf 5417R centrifuge (Eppendorf, Hamburg, Germany). The supernatant was passed through a 0.22 μm filter (Merck KGaA, Darmstadt, Germany) and analyzed by liquid chromatography–tandem mass spectrometry (LC-MS/MS) using the following method: An Agilent 1260 LC quaternary pump with an Agilent 1260 LC infinity autosampler and an Agilent 1100 column oven (Marshall Scientific, Hampton, NH, USA) were used to inject the samples onto an Astec Chirobiotic column (5 μm, 250 × 4.6 mm I.D., Sigma-Aldrich, St. Louis, MO, USA). The mobile phase was a 20/80 mixture of mobile phase A (0.1% formic acid (Sigma-Aldrich, St. Louis, MO, USA) in ddH2O) and mobile phase B (0.1% formic acid in acetonitrile), and the run was isocratic at a flow rate of 0.3 mL/min. Quantitation was achieved by MS/MS detection in positive ion multiple reaction monitoring (MRM) mode for analyte and IS using an AB SCIEX 3200 triple quadrupole ion trap mass spectrometer (AB Sciex, Framingham, MA, USA). The parameters for curtain gas, ion spray voltage, temperature, ion source gas 1, and ion source gas 2 were 10 psi, 5000 V, 550 °C, 35 psi, and 30 psi, respectively. AB SCIEX Analyst® (version 1.6.3, AB Sciex, Framingham, MA, USA) software was used for system control and data processing. To investigate the regulation of racemization by hSR, we applied DMM, the pro-drug of malonate, to C57BL/6J male mice. The mice were euthanized 30 min after the administration. The cerebral cortex and plasma were harvested and analyzed by LC-MS/MS to quantify D-serine and L-serine levels after the treatment with DMM (Figure 1). […] L-serine levels were also raised in the cerebral cortex 1.44 times (p < 0.001; n = 3; Student’s t-test) and in plasma 1.55 times (p < 0.05; n = 3; Student’s t-test).

In the case of `Nc1ncnc2c1ncn2[C@@H]1O[C@H](COP(=O)(O)OP(=O)(O)OP(=O)(O)O)[C@@H](O)[C@H]1O` [ATP], in assay [1], the “ATP concentration that promotes the most racemization by hSR” value is 0.25 mM. The “Increase in enzyme activation, L-serine dehydration (kcat/KM 8.1 to 253 s^−1 M^−1)” value at hSR (200 mM L-serine, 37 °C) is recorded as 31 fold. Besides, on hSR, the “Enhancement of D-serine dehydration (kcat/KM 0.6 to 2.4 s^−1 M^−1)” value is 4 fold and the “Enhancement of L-serine racemization (kcat/KM 9.2 to 17.5 s^−1 M^−1)” value is given as 1.9 fold.

Regarding `Nc1ccccc1N1CCOCC1` [x-0458, 2-morpholinoaniline, reference compound], the “Effect on DAAO” value in assay [2] is “has an inhibitory effect on DAAO”. Besides, the concentration for half-maximal inhibition (IC50) in the assay on SR [3] was 10.6 µM.

As for `COC(=O)CC(=O)OC` [DMM, dimethyl malonate], in the assay with SR [4], the “D-serine level in plasma, raised” value is 1.75 times; the “D-serine level in the cerebral cortex, raised” value turned out to be 1.43 times; the “L-serine level in plasma, raised” value is 1.55 times; the “L-serine level in the cerebral cortex, raised” value was 1.44 times.
